Common to all, as to format: cell-based
In one test the target is T1, rat aortal strip (Rattus norvegicus, UniProt P34978).
T1 construct: the rat aortal strip model developed by Kennedy et alia; from tissue; host or cells: rat aorta strip
T1 sequence (P34978 1-341): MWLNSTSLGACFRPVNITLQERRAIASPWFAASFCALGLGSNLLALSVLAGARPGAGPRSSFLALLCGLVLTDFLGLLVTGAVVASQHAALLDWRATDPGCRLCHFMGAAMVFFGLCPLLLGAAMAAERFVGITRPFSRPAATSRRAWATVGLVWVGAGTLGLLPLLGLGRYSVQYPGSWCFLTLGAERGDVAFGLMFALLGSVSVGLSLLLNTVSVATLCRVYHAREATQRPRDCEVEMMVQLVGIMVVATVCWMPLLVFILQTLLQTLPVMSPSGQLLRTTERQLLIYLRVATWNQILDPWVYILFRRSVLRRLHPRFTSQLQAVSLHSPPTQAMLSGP
As to the kind of experiment: rat aortal strip model, antagonism of the TXA2 mimetic U46619 (test (a)). The settings on record: agonist U46619, procedure (a), read-out: pA2 (converted). From the text:
As stated earlier, the compounds of formula I are antagonists of one or more of the actions of TXA2, for example certain of its actions on blood platelets, the vasculature and/or the lung.
(a) The rabbit aortal strip model devised by Piper and Vane (Nature, 1969, 223, 29-35) or the rat aortal strip model developed by Kennedy et alia (Prostaglandins, 1982, 24, 667-689), using as agonist the TXA2 mimetic agent known as U46619 (described by R. L. Jones et alia. in "Chemistry, Biochemistry and Pharmacological Activity of Prostanoids" edited by S. M. Roberts and F. Scheinmann, at page 211, Pergamon Press, 1979);

Test [1] has as its target T2, human, citrated platelet rich plasma (Homo sapiens, UniProt P21731).
T2 construct: aggregating human, citrated platelet rich plasma; from tissue; host or cells: human citrated platelet rich plasma (native platelets)
T2 sequence (P21731 1-343): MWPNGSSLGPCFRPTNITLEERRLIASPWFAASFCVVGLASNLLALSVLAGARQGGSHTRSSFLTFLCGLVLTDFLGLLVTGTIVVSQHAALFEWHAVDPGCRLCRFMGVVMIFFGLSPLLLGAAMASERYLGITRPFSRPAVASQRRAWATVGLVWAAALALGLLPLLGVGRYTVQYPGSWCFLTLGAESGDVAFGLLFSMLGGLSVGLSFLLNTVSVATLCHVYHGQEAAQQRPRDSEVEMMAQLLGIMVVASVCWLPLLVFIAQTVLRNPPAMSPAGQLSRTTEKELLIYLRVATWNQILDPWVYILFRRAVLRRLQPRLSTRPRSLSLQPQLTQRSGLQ
Nature of the test: blood platelet aggregation test, U46619-induced aggregation of human citrated platelet rich plasma (test (b)). The settings on record: U46619, procedure (b). From the text:
(b) a blood platelet aggregation test based on that described by Born (Nature, 1962, 194, 927-929) and involving:
(i) aggregating human, citrated platelet rich plasma by addition of the TXA2 mimetic agent U46619 so that a dose-response curve is generated:
(ii) generating a dose-response curve for U46619 stimulated platelet aggregation in the presence of increasing amounts of test compound (generally in the range, 10^-5 M to 10^-10 M); and
(iii) calculating a KB value indicating potency of TXA2 antagonism for the test compound, averaged over several concentrations, from the calculated 50% response value for U46619 aggregation in the presence and absence of test compound: and (c) a bronchoconstriction test involving measuring the inhibition by test compound of the bronchoconstriction induced in the Konzett-Rossler, anaesthetised guinea-pig model (as modified by Collier and James, Brit. J. Pharmacol., 1967, 30, 283-307) by intravenous administration of the TXA2 mimetic agent, U46619 and involving: […]

The subject of a further test is human platelets. As to the kind of experiment: inhibition of arachidonic acid induced aggregation of human platelets. From the text:
The beneficial effects of combining one of the novel TXA2 antagonists of formula I defined hereinabove with a TXA2 synthetase inhibitor may be illustrated in vitro, for example by evaluating their effects in inhibiting arachidonic acid induced aggregation of human platelets, using standard procedures well known in the art.

SMILES strings stand for the structures.

`CC(C)(Oc1ccccc1)[C@H]1OC[C@@H](C/C=C\CCC(=O)O)[C@@H](c2ccccc2O)O1` (relative stereo) [Example 6, 4(Z) 6 ([2,4,5 cis]4-o-hydroxyphenyl-2-[1-methyl-1-phenoxyethyl] -1,3-dioxan-5-yl)hexenoic acid]: the Kb is 0.195 nM at rat aortal strip and 17.5 nM in test [1]. Moreover, in the test on human platelets (tested alone at 10^-9 M), the “inhibition of arachidonic acid induced aggregation of human platelets” value was “no significant inhibition”.

With `O=C(O)c1ccc(OCCn2ccnc2)cc1` [dazoxiben, reference compound], the “inhibition of arachidonic acid induced aggregation of human platelets” value in the test on human platelets (tested alone at 10^-4 M) was “no significant inhibition”.
